Data published in patent US20080300180A1, “Growth Hormone Secretagogue Receptor 1A Ligands” (Gastrotech Pharma A/S, priority 2004, published 2008).
Entries after “also recorded” stand apart in the source; their conditions may differ. Square brackets hold non-standard residues; d marks the D form. Ends that are not written are not given here. * marks the point of attachment. Octanoyl = CCCCCCCC(=O)*; GABA = NCCCC(=O)O

Test: Preclinical study evaluating the long-term efficacy of subcutaneous ghrelin, GTP-5 and GTP-6 in rats (weight gain, food intake, fat pads)
Format: in vivo, rat
Settings: for Total weight increase in the animals, Mean ± S.D.: Sprague-Dawley rats, n=8, s.c. twice daily; for Body weight gain compared with saline group (in words) / Cumulative food intake compared with control group (in words) / Epididymal fat depots (fat pad weight, in words) / Subcutaneous fat depots (fat pad weight, in words): rats, s.c. twice daily
Description: 48 (Sprauge-Dawley (SD) IGS BR) rats were used in the study. The animals were caged individually and fed a commercial diet, R34, from Lactamin AB, Sweden. They were given free access to water. All animals were allowed an acclimatisation period of a minimum of 7 days prior to the commencement of the experiment. The animals were separated in six groups (n=8) and treated twice daily with subcutaneous injections as follows: • Group 1. Control (NaCl). • Group 2. Positive control Ghrelin 200 μg/kg body weight/injection. • Group 3. GTP-5 50 μg/kg body weight/injection. • Group 4. GTP-5 200 μg/kg body weight/injection. • Group 5. GTP-6 50 μg/kg body weight/injection. • Group 6. GTP-6 200 μg/kg body weight/injection.
The weight of the animals, and their food and water were recorded daily. The animals were checked twice daily for change in food intake, activity and fur quality as signs of a change in general health status.
Pre-dose, day 7 and 14 the animals were anaesthetized with Isofluran and blood was collected through the orbital plexus. The blood was analysed for clinical chemistry (ASAT, ALAT, bilirubin, albumin, creatinine, LD, GGT, potassium, sodium, glucose, IgF-1, insulin and leptin) and haematology (white blood cells, red blood cells, haemoglobin, platelets and haematokrit). After blood sampling the animals were killed and epididymal, subcutaneous and retroperitoneal fat pads were dissected and weighed.

[1] = 200 μg/kg body weight/injection
[2] = 50 μg/kg body weight/injection (low dose)
[3] = 200 μg/kg body weight/injection (high dose)
[4] = 200 μg/kg body weight/injection (high dose), listed as ghrelin

Substance	Total weight increase in the animals, Mean ± S.D. (50 μg/kg body weight/injection) [g]	Total weight increase in the animals, Mean ± S.D. [1] [g]	Body weight gain compared with saline group (in words) [2]	Cumulative food intake compared with control group (in words) [2]	Body weight gain compared with saline group (in words) [3]	Cumulative food intake compared with control group (in words) [3]	Epididymal fat depots (fat pad weight, in words) [3]	Subcutaneous fat depots (fat pad weight, in words) [3]	Body weight gain compared with saline group (in words) [4]	Cumulative food intake compared with control group (in words) [4]	Subcutaneous fat depots (fat pad weight, in words) [2]
GABAS(CO-C7 H15)FLSPEHQRVQQRKESKKPPAKLQPR ([GABA]S(Octanoyl)FLSPEHQRVQQRKESKKPPAKLQPR) [GTP-5, 27 amino acids long, octanoyl on the serine-3 sidechain (GABA = 4-aminobutyric acid)]	75.4 ± 14.3	78.2 ± 16.3	higher weight gains than saline; also recorded: associated with increases	associated with increases	higher weight gains than saline; also recorded: associated with increases	tended to eat more than the control group; also recorded: associated with increases	significant increase	significant increase; also recorded: induced an increase			
Ghrelin: Positive control; 28 amino acid peptide hormone acylated on serine 3, endogenous GHS-R1a ligand (GSS(Octanoyl)FLSPEHQRVQQRKESKKPPAKLQPR; UniProt Q9UBU3 24-51, looked up) [reference compound]		92.1 ± 9.0			associated with increases	associated with increases	significant increase	significant increase; also recorded: induced an increase	gained significantly more weight than the saline group	higher cumulative food intake	
bASS(CO-C7 H15)FLSPEHQRVQQRKESKKPPAKLQPR (XSSFLSPEHQRVQQRKESKKPPAKLQPR; N-terminal beta-alanine; octanoyl on Ser3) [GTP-6, 28 amino acids long, octanoyl group on serine-3 sidechain (bA = beta-alanine)]	79.3 ± 10.0	77.8 ± 10.2	higher weight gains than saline; also recorded: associated with increases	tended to eat more than the control group; also recorded: associated with increases	higher weight gains than saline; also recorded: associated with increases	tended to eat more than the control group; also recorded: associated with increases		significant increase; also recorded: induced an increase			significant increase; also recorded: induced an increase
